Experimental data reported in US4465674A, “Azahomoerythromycin D derivative and intermediates therefor” (Pfizer Inc., priority 1983, dated 1984).
≈ marks a conversion by molar mass, not a printed value. Where two headings read alike, the source gives them in different places.

Columns and labels:
Neiss. sic. = assay: in vitro MIC in BHI broth, Neiss. sic.; assay type: cell-based
Source text: (§1) Generally twelve 2 fold dilutions of the test compound are employed, with initial concentration of the test drug being in the range of 50 to 200 mcg./ml.
(§2) The susceptibility (MIC) of the test organism is accepted as the lowest concentration of compound capable of producing complete inhibition of growth as judged by the naked eye.

Prov. strua. = assay: in vitro MIC in BHI broth, Prov. strua.; assay type: cell-based
Source text: as §1, §2

Strep. faec. = assay: in vitro MIC in BHI broth, Strep. faec.; assay type: cell-based
Source text: as §1, §2

Past. mult. = assay: in vitro MIC in BHI broth, Past. mult.; assay type: cell-based
Source text: as §1, §2

Staph. epi = assay: in vitro MIC in BHI broth, Staph. epi; assay type: cell-based
Source text: as §1, §2

E. Coli = assay: in vitro MIC in BHI broth, E. Coli; assay type: cell-based; details: Escherichia coli
Serr. mar. = assay: in vitro MIC in BHI broth, Serr. mar.; assay type: cell-based
Source text: as §1, §2

Kleb. oxy. = assay: in vitro MIC in BHI broth, Kleb. oxy.; assay type: cell-based
Source text: as §1, §2

Strep. pyog. = assay: in vitro MIC in BHI broth, Strep. pyog.; assay type: cell-based
Source text: as §1, §2

H. influ. = assay: in vitro MIC in BHI broth, H. influ.; assay type: cell-based
Source text: as §1, §2

Kleb. pn. = assay: in vitro MIC in BHI broth, Kleb. pn.; assay type: cell-based
Ent. aerog. = assay: in vitro MIC in BHI broth, Ent. aerog.; assay type: cell-based
Ent. cloac. = assay: in vitro MIC in BHI broth, Ent. cloac.; assay type: cell-based
Source text: as §1, §2

Staph. aur. = assay: in vitro MIC in BHI broth, Staph. aur.; assay type: cell-based
Source text: as §1, §2

[1] = test system: erythromycin A and D susceptible organisms and Gram negative microorganisms resistant to erythromycin A and D; assay: spectrum of antibacterial activity; assay type: cell-based
Source text: as §1

[2] = serum levels after oral dosage (micro-biological bioassay) in mice; assay type: in vivo
Procedure: Additionally, compound (II) is tested in vivo by the well-known mouse protection test, or by a micro-biological (bioassay) determination of serum levels in a variety of mammals (e.g., mouse, rat, dog).

[3] = Prov. strua. 013, BHI broth, read-out: MIC
[4] = Past. mult. 001, BHI broth, read-out: MIC
[5] = Staph. epi 111, BHI broth, read-out: MIC
[6] = Serr. mar. 017, BHI broth, read-out: MIC
[7] = Kleb. oxy. 024, BHI broth, read-out: MIC
[8] = Strep. pyog. 203, BHI broth, read-out: MIC
[9] = Kleb. pn. 009, BHI broth, read-out: MIC
[10] = Ent. aerog. 040, BHI broth, read-out: MIC
[11] = Ent. cloac. 009, BHI broth, read-out: MIC
[12] = Neiss. sic. 000, BHI broth, read-out: MIC

Row | Compound | MIC (Neiss. sic.) [µg/mL] | MIC (Prov. strua.; [3]) [µg/mL] | MIC (Past. mult.; [4]) [µg/mL] | MIC (Staph. epi; [5]) [µg/mL] | MIC (E. Coli; E. Coli 125) [µg/mL] | MIC (E. Coli; E. Coli 129) [µg/mL] | MIC (E. Coli; E. Coli 266) [µg/mL] | MIC (E. Coli; E. Coli 470) [µg/mL] | MIC (Serr. mar.; [6]) [µg/mL] | MIC (Kleb. oxy.; [7]) [µg/mL] | MIC (Strep. pyog.; [8]) [µg/mL] | MIC (H. influ.; H. influ. 012) [µg/mL] | MIC (H. influ.; H. influ. 036) [µg/mL] | MIC (H. influ.; H. influ. 038) [µg/mL] | MIC (H. influ.; H. influ. 042) [µg/mL] | MIC (H. influ.; H. influ. 051) [µg/mL] | MIC (Kleb. pn.; Kleb. pn. 031, BHI broth) | MIC (Ent. cloac.; [11]) [µg/mL] | MIC (Staph. aur.; Staph. aur. 005, read-out: MIC) [µg/mL] | MIC (Staph. aur.; Staph. aur. 052, read-out: MIC) [µg/mL] | further results
1 | CC[C@H]1OC(=O)[C@H](C)[C@@H](O[C@H]2C[C@@](C)(OC)[C@@H](O)[C@H](C)O2)[C@H](C)[C@@H](O[C@@H]2O[C@H](C)C[C@H](N(C)C)[C@H]2O)[C@](C)(O)C[C@@H](C)C(=O)[C@H](C)[C@@H](O)[C@]1(C)O [(1), Erythromycin A] | 3.12 (≈ 4.25 µM) | > 50 | 0.78 (≈ 1.06 µM) | 0.05 (≈ 0.0681 µM) | > 50 | > 50 | > 50 | 1.56 (≈ 2.13 µM) | > 50 | > 50 | 0.025 (≈ 0.0341 µM) | 3.12 (≈ 4.25 µM) | 3.12 (≈ 4.25 µM) | 1.56 (≈ 2.13 µM) | 3.12 (≈ 4.25 µM) | 3.12 (≈ 4.25 µM) | (a) (greater than 50) | > 50 | 0.05 (≈ 0.0681 µM) | 0.1 (≈ 0.136 µM) | MIC (Strep. faec.; Strep. faec. 006, BHI broth, read-out: MIC): 0.39 µg/mL (≈ 0.531 µM); MIC (H. influ.; H. influ. 073): 3.12 µg/mL (≈ 4.25 µM); MIC (H. influ.; H. influ. 078): 1.56 µg/mL (≈ 2.13 µM); MIC (H. influ.; H. influ. 081): 3.12 µg/mL (≈ 4.25 µM); MIC (Kleb. pn.; [9]): > 50 µg/mL; MIC (Ent. aerog.; [10]): > 50 µg/mL; MIC (Staph. aur.; Staph. aur. 400): 6.25 µg/mL (≈ 8.52 µM)
2 | CC[C@H]1OC(=O)[C@H](C)[C@@H](O[C@H]2C[C@@](C)(O)[C@@H](O)[C@H](C)O2)[C@H](C)[C@@H](O[C@@H]2O[C@H](C)C[C@H](N(C)C)[C@H]2O)[C@](C)(O)C[C@@H](C)C(=O)[C@H](C)[C@@H](O)[C@H]1C [(2), Erythromycin D] | 6.25 (≈ 8.88 µM) |  |  |  | > 50 | > 50 | > 50 | 3.12 (≈ 4.43 µM) |  |  |  | 25 (≈ 35.5 µM) | 50 (≈ 71 µM) | 25 (≈ 35.5 µM) | 25 (≈ 35.5 µM) | 12.5 (≈ 17.8 µM) | (a) (greater than 50) |  |  |  | MIC (Prov. strua.): > 50 µg/mL; MIC (Strep. faec.): 0.39 µg/mL (≈ 0.554 µM); MIC (Past. mult.): 6.25 µg/mL (≈ 8.88 µM); MIC (Staph. epi): 0.2 µg/mL (≈ 0.284 µM); MIC (Serr. mar.): > 50 µg/mL; MIC (Kleb. oxy.): > 50 µg/mL; MIC (Strep. pyog.): 0.025 µg/mL (≈ 0.0355 µM); MIC (H. influ.; H. influ. 073): 50 µg/mL (≈ 71 µM); MIC (H. influ.; H. influ. 078): 12.5 µg/mL (≈ 17.8 µM); MIC (H. influ.; H. influ. 081): 25 µg/mL (≈ 35.5 µM); MIC (Kleb. pn.): > 50 µg/mL; MIC (Ent. aerog.): > 50 µg/mL; MIC (Ent. cloac.): > 50 µg/mL; MIC (Staph. aur.; Staph. aur. 005): 0.39 µg/mL (≈ 0.554 µM); MIC (Staph. aur.; Staph. aur. 052): 0.39 µg/mL (≈ 0.554 µM); MIC (Staph. aur.; Staph. aur. 400): 6.25 µg/mL (≈ 8.88 µM)
3 | CC[C@H]1OC(=O)[C@H](C)[C@@H](O[C@H]2C[C@@](C)(OC)[C@@H](O)[C@H](C)O2)[C@H](C)[C@@H](O[C@@H]2O[C@H](C)C[C@H](N(C)C)[C@H]2O)[C@](C)(O)C[C@@H](C)CN(C)[C@H](C)[C@@H](O)[C@]1(C)O [(3), 9-deoxo-9a-methyl-9a-aza-9a-homoerythromycin A] |  | 50 (≈ 66.8 µM) | 0.1 (≈ 0.134 µM) | 0.1 (≈ 0.134 µM) |  | 6.25 (≈ 8.34 µM) | 6.25 (≈ 8.34 µM) | 0.78 (≈ 1.04 µM) | 50 (≈ 66.8 µM) | 25 (≈ 33.4 µM) | 0.025 (≈ 0.0334 µM) |  |  |  |  | 1.56 (≈ 2.08 µM) |  | 25 (≈ 33.4 µM) | 0.2 (≈ 0.267 µM) | 0.39 (≈ 0.521 µM) | MIC (Neiss. sic.; [12]): 0.39 µg/mL (≈ 0.521 µM); MIC (Strep. faec.): 1.56 µg/mL (≈ 2.08 µM); MIC (H. influ.; H. influ. 036, read-out: MIC): 0.78 µg/mL (≈ 1.04 µM); MIC (H. influ.; H. influ. 038, read-out: MIC): 0.78 µg/mL (≈ 1.04 µM); MIC (H. influ.; H. influ. 042, read-out: MIC): 0.78 µg/mL (≈ 1.04 µM); MIC (H. influ.; H. influ. 073, read-out: MIC): 0.78 µg/mL (≈ 1.04 µM); MIC (H. influ.; H. influ. 078, read-out: MIC): 0.39 µg/mL (≈ 0.521 µM); MIC (H. influ.; H. influ. 081, read-out: MIC): 0.78 µg/mL (≈ 1.04 µM); MIC (Staph. aur.; Staph. aur. 400, read-out: MIC): 25 µg/mL (≈ 33.4 µM)
4 | CC[C@H]1OC(=O)[C@H](C)[C@@H](O[C@H]2C[C@@](C)(O)[C@@H](O)[C@H](C)O2)[C@H](C)[C@@H](O[C@@H]2O[C@H](C)C[C@H](N(C)C)[C@H]2O)[C@](C)(O)C[C@@H](C)CN(C)[C@H](C)[C@@H](O)[C@H]1C [Compound (II), 9-deoxo-9a-methyl-9a-aza-9a-homoerythromycin D] |  | > 50 | 0.2 (≈ 0.278 µM) | 0.39 (≈ 0.542 µM) | 25 (≈ 34.8 µM) | 12.5 (≈ 17.4 µM) | 12.5 (≈ 17.4 µM) | 0.39 (≈ 0.542 µM) | > 50 | 50 (≈ 69.5 µM) | 0.025 (≈ 0.0348 µM) |  |  |  |  |  | 50 micrograms/ml. | > 50 | 0.39 (≈ 0.542 µM) | 0.78 (≈ 1.08 µM) | MIC (Neiss. sic.; [12]): 0.78 µg/mL (≈ 1.08 µM); spectrum of antibacterial activity [1]: relatively broad spectrum of antibacterial activity which includes erythromycin A and D susceptible organisms and, in addition, many Gram negative microorganisms resistant to erythromycin A and D; absorption after oral dosage [2]: exceptionally well absorbed; serum levels [2]: exceptionally high and long lasting serum levels; MIC (H. influ.; H. influ. 012, read-out: MIC): 3.12 µg/mL (≈ 4.34 µM); MIC (H. influ.; H. influ. 036, read-out: MIC): 3.12 µg/mL (≈ 4.34 µM); MIC (H. influ.; H. influ. 038, read-out: MIC): 1.56 µg/mL (≈ 2.17 µM); MIC (H. influ.; H. influ. 042, read-out: MIC): 3.12 µg/mL (≈ 4.34 µM); MIC (H. influ.; H. influ. 051, read-out: MIC): 3.12 µg/mL (≈ 4.34 µM); MIC (H. influ.; H. influ. 073, read-out: MIC): 0.39 µg/mL (≈ 0.542 µM); MIC (H. influ.; H. influ. 078, read-out: MIC): 0.78 µg/mL (≈ 1.08 µM); MIC (H. influ.; H. influ. 081, read-out: MIC): 3.12 µg/mL (≈ 4.34 µM); MIC (Kleb. pn.; [9]): 50 µg/mL (≈ 69.5 µM); MIC (Ent. aerog.; [10]): 50 µg/mL (≈ 69.5 µM); MIC (Staph. aur.; Staph. aur. 400, read-out: MIC): > 50 µg/mL
